Laboratory results: ChEMBL document CHEMBL1938230, “6-Position optimization of tricyclic 4-quinolone-based inhibitors of glycogen synthase kinase-3β: discovery of nitrile derivatives with picomolar potency” (Bioorg Med Chem Lett, 2012)

Experiments:
[1] = biological target: Phosphatidylinositol 4-kinase beta (Homo sapiens) (UniProt Q9UBF8); test: Inhibition of human PI4KB in HL-60 cells lysate assessed as reduction of labeling of acyl-phosphate ATP probe at 100 nM; type: cell-free
[2] = biological target: T1, Phosphatidylinositol 5-phosphate 4-kinase type-2 alpha (Homo sapiens) (UniProt P48426); test: Inhibition of human PIP4K2A in HL-60 cells lysate assessed as reduction of labeling of acyl-phosphate ATP probe at 100 nM; type: cell-free
T1 sequence (whole entry): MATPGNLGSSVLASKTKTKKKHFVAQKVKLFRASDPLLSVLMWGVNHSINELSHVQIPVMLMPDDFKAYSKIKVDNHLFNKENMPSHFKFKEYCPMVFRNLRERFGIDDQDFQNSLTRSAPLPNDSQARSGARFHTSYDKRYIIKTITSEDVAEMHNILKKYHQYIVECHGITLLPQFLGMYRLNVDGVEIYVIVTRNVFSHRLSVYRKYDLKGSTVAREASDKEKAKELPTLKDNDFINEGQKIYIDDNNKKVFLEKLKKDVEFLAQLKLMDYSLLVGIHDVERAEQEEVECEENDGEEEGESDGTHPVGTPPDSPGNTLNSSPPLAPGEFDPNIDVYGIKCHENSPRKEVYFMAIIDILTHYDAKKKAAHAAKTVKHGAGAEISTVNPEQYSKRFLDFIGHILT

[3] = biological target: T2, Serine/threonine-protein kinase ULK3 (Homo sapiens) (UniProt Q6PHR2); test: Inhibition of human ULK3 in HL-60 cells lysate assessed as reduction of labeling of acyl-phosphate ATP probe at 100 nM; type: cell-free
T2 sequence (whole entry): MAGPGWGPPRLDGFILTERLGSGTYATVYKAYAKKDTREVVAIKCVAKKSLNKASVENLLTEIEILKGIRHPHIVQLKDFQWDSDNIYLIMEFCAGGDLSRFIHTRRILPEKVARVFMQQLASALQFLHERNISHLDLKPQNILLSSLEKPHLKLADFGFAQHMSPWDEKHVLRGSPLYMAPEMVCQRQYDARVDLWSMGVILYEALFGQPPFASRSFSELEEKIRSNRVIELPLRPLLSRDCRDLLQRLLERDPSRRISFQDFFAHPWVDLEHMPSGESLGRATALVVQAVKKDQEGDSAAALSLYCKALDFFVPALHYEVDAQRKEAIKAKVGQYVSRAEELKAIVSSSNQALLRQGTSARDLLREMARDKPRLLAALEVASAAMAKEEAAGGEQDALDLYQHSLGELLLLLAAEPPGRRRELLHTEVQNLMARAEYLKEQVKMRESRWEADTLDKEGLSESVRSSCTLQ

HL-60 [4] = test: Inhibition of human Wnk1/Wnk2/Wnk4 in HL-60 cells lysate assessed as reduction of labeling of acyl-phosphate ATP probe at 100 nM
[5] = biological target: Mitogen-activated protein kinase kinase kinase kinase 1 (Homo sapiens) (UniProt Q92918); test: Inhibition of human HPK1 in HL-60 cells lysate assessed as reduction of labeling of acyl-phosphate ATP probe at 100 nM; type: cell-free
Mitogen-activated protein kinase kinase kinase kinase 1 (Homo sapiens), sequence (Q92918 whole entry, looked up): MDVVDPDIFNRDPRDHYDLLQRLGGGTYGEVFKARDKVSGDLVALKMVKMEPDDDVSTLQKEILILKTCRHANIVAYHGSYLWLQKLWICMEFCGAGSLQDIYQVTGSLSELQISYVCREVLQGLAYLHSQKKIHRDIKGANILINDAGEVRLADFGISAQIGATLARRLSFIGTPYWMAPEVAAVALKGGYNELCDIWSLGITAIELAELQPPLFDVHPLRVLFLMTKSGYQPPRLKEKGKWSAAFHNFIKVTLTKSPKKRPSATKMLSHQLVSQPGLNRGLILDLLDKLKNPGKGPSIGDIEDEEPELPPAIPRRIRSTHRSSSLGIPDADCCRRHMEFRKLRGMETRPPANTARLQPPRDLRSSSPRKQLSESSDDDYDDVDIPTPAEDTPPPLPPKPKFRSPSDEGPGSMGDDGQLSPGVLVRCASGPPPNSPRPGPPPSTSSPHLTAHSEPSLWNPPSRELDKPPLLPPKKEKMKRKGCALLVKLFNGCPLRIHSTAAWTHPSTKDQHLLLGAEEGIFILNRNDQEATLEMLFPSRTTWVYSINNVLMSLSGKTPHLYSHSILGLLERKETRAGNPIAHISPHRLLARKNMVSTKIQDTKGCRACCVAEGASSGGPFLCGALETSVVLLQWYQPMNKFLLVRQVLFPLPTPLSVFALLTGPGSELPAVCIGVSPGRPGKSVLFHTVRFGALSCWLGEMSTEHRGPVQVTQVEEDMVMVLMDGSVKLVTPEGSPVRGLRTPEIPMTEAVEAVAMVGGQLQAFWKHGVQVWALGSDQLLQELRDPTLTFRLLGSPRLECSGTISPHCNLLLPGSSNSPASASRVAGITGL

[6] = biological target: T3, Dual specificity mitogen-activated protein kinase kinase 6 (Homo sapiens) (UniProt P52564); test: Inhibition of human MAP2K6 in HL-60 cells lysate assessed as reduction of labeling of acyl-phosphate ATP probe at 100 nM; type: cell-free
T3 sequence (whole entry): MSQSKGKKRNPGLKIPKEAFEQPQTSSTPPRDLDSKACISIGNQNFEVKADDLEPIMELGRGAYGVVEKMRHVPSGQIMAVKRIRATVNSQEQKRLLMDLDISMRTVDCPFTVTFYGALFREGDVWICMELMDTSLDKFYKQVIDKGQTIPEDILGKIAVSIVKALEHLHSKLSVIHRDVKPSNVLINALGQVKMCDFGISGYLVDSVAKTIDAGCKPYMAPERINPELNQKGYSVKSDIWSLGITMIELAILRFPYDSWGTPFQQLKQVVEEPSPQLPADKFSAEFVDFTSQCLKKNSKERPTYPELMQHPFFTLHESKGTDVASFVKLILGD

[7] = biological target: Mitogen-activated protein kinase kinase kinase 1 (Homo sapiens) (UniProt Q13233); test: Inhibition of human MAP3K1 in HL-60 cells lysate assessed as reduction of labeling of acyl-phosphate ATP probe at 100 nM; type: cell-free
Mitogen-activated protein kinase kinase kinase 1 (Homo sapiens), sequence (Q13233 whole entry): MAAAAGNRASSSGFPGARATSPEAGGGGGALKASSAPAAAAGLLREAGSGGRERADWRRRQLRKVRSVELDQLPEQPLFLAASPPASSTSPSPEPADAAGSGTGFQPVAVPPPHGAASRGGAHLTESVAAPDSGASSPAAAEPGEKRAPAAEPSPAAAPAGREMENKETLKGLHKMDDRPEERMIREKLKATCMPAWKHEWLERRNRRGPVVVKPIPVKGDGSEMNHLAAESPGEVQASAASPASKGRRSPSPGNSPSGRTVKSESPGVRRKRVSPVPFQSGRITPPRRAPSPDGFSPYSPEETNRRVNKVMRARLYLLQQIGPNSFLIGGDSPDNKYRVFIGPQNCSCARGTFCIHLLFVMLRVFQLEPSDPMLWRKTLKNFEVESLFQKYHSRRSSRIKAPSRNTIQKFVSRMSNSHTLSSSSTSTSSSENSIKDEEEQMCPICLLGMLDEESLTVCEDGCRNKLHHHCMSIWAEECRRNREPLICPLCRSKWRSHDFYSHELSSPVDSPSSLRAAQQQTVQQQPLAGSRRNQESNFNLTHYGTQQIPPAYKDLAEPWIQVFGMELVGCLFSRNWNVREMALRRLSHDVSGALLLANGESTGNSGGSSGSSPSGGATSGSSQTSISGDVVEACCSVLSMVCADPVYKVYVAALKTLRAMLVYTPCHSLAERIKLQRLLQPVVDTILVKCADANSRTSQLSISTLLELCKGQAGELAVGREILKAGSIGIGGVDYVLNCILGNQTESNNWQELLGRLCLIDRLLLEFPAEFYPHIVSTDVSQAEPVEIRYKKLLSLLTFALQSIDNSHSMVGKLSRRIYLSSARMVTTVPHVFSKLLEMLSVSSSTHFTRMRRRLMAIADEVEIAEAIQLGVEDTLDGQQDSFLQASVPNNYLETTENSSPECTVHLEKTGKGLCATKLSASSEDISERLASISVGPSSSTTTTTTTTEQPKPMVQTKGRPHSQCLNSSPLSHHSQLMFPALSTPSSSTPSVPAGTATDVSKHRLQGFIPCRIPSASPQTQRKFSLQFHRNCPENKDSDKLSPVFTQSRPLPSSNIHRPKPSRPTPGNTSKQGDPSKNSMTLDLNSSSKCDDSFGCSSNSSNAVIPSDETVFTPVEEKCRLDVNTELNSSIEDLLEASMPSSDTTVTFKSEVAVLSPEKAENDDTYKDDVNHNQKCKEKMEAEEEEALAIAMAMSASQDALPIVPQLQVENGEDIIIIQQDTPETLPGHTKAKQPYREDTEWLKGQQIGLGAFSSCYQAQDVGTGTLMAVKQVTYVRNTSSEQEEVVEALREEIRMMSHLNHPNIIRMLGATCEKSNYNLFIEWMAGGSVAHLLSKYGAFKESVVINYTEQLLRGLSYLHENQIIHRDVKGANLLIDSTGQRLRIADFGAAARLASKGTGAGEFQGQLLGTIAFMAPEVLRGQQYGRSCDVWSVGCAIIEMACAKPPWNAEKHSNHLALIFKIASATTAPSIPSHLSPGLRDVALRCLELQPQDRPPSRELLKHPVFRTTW

HL-60 [8] = test: Inhibition of human MST3/MST4/YSK1 in HL-60 cells lysate assessed as reduction of labeling of acyl-phosphate ATP probe at 100 nM
[9] = biological target: Serine/threonine-protein kinase PAK 2 (Homo sapiens) (UniProt Q13177); test: Inhibition of human PAK2 in HL-60 cells lysate assessed as reduction of labeling of acyl-phosphate ATP probe at 100 nM; type: cell-free
Serine/threonine-protein kinase PAK 2 (Homo sapiens), sequence (Q13177 whole entry): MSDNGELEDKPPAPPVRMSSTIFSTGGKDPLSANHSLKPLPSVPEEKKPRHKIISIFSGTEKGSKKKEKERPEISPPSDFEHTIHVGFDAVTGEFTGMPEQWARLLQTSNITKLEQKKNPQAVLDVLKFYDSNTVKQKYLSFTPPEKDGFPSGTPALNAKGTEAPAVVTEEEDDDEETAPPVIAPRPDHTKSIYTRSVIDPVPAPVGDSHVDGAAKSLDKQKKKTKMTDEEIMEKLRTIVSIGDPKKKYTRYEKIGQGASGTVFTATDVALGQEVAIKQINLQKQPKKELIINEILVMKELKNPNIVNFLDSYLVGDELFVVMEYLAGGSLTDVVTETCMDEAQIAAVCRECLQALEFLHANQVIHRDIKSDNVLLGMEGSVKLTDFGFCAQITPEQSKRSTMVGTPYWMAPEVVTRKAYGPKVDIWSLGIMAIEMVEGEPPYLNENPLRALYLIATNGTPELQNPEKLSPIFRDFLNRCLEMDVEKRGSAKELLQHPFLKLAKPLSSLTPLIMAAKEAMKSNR

[10] = biological target: Tyrosine-protein kinase Lyn (Homo sapiens) (UniProt P07948); test: Inhibition of human LYN in HL-60 cells lysate assessed as reduction of labeling of acyl-phosphate ATP probe at 100 nM; type: cell-free
Tyrosine-protein kinase Lyn (Homo sapiens), sequence (P07948 2-512 limits assumed): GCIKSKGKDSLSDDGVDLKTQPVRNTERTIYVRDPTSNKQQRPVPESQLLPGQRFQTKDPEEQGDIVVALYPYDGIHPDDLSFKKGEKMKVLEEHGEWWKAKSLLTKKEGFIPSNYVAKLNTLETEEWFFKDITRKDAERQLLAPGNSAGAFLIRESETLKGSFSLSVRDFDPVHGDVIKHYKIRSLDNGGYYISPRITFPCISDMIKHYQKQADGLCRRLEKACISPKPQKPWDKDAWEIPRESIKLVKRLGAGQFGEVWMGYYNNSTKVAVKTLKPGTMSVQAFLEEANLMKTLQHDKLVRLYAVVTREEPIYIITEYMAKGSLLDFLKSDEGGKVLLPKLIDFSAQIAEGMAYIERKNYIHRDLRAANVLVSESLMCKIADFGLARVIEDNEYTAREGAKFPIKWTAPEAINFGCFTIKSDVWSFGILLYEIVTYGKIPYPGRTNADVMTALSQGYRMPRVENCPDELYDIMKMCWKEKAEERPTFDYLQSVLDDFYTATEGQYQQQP

[11] = biological target: T4, Serine/threonine-protein kinase A-Raf (Homo sapiens) (UniProt P10398); test: Inhibition of human ARAF in HL-60 cells lysate assessed as reduction of labeling of acyl-phosphate ATP probe at 100 nM; type: cell-free
T4 sequence (whole entry): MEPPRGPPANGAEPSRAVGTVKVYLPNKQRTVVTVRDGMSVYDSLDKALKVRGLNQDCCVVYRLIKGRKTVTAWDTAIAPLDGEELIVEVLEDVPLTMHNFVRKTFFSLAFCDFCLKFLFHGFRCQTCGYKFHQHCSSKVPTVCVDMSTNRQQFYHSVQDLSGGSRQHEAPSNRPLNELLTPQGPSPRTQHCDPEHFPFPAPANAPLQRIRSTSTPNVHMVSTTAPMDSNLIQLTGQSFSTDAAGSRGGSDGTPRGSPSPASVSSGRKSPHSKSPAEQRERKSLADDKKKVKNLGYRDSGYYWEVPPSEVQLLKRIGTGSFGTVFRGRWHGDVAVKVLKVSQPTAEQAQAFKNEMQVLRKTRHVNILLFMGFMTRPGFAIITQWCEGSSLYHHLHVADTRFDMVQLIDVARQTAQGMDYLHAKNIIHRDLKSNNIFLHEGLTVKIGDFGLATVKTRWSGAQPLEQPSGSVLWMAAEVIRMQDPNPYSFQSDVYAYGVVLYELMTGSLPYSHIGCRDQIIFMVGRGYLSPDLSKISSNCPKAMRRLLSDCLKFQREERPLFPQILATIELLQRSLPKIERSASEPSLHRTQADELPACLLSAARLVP

[12] = biological target: Mitogen-activated protein kinase 1 (Homo sapiens) (UniProt P28482); test: Inhibition of human Erk2 in HL-60 cells lysate assessed as reduction of labeling of acyl-phosphate ATP probe at 100 nM; type: cell-free
Mitogen-activated protein kinase 1 (Homo sapiens), sequence (P28482 whole entry): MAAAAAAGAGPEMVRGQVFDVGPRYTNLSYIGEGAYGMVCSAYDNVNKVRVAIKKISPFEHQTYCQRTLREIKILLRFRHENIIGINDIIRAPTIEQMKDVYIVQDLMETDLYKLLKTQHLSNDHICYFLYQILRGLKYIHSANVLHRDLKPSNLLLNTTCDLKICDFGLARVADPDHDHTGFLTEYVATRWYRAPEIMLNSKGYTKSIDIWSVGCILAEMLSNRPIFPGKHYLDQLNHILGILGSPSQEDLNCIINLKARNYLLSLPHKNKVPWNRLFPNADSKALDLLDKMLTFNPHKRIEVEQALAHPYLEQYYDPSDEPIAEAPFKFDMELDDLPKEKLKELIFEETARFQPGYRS

[13] = biological target: Cyclin-dependent kinase 5 (Homo sapiens) (UniProt Q00535); test: Inhibition of human CDK5 in HL-60 cells lysate assessed as reduction of labeling of acyl-phosphate ATP probe at 100 nM; type: cell-free
Cyclin-dependent kinase 5 (Homo sapiens), sequence (Q00535 whole entry, looked up): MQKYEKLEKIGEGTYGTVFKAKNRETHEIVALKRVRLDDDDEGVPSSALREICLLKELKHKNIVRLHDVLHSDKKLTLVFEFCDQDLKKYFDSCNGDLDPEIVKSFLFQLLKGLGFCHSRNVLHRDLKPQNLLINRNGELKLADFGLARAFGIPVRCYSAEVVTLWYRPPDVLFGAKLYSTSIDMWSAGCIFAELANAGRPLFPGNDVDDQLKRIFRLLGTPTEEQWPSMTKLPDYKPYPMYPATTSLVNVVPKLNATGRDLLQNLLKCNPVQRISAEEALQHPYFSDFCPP

[14] = biological target: Cyclin-dependent kinase 17 (Homo sapiens) (UniProt Q00537); test: Inhibition of human PCTAIRE2 in HL-60 cells lysate assessed as reduction of labeling of acyl-phosphate ATP probe at 100 nM; type: cell-free

Phosphatidylinositol 4-kinase beta (Homo sapiens), sequence (Q9UBF8 2-816 limits assumed): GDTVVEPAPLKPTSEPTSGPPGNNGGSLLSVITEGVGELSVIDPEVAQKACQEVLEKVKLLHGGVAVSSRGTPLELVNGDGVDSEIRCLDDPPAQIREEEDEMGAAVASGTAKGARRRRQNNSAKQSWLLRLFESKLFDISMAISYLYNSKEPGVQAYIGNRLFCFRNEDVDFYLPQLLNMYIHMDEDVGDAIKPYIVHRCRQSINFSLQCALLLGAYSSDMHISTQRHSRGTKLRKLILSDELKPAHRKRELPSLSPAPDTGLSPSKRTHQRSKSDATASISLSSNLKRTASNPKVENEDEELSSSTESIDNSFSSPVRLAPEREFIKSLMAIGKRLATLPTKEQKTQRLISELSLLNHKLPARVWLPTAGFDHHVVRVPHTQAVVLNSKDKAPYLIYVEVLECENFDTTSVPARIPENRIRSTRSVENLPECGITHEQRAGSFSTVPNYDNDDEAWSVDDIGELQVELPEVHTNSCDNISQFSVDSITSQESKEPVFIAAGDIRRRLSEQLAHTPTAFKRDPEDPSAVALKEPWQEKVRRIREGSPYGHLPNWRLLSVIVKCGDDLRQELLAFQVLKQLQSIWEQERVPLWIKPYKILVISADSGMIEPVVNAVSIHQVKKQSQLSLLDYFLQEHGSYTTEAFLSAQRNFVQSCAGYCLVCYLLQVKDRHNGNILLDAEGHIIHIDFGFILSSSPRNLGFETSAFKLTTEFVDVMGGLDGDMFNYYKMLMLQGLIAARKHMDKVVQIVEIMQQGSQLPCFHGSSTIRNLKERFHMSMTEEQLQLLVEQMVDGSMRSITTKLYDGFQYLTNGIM

Row | inhibition [1] [%] | inhibition [2] [%] | inhibition [3] [%] | inhibition [5] [%] | inhibition [6] [%] | inhibition [7] [%] | inhibition [9] [%] | inhibition [10] [%] | inhibition [11] [%] | inhibition [12] [%] | inhibition [13] [%] | inhibition [14] [%] | Compound | inhibition at 0.1 µM (HL-60 [4]) [%] | inhibition at 0.1 µM (HL-60 [8]) [%]
1 | < 35 | < 35 | < 35 | < 35 | < 35 | < 35 | < 35 | < 35 | < 35 | < 35 | < 35 | < 35 | C[C@H]1COc2c(NCCCc3ccccn3)c(F)c(N)c3c(=O)c(C#N)cn1c23 | < 35 | < 35
2 | < 35 | < 35 | < 35 | < 35 | < 35 | < 35 | < 35 | < 35 | < 35 | < 35 | < 35 | < 35 | C[C@H]1COc2c(NCCCn3cccn3)c(F)c(N)c3c(=O)c(C(=O)O)cn1c23 | < 35 | < 35
3 | < 35 | < 35 | < 35 | < 35 | < 35 | < 35 | < 35 | < 35 | < 35 | < 35 | < 35 | < 35 | C[C@H]1COc2c(NCCCc3ccccn3)c(F)c(N)c3c(=O)c(C(=O)O)cn1c23 | < 35 | < 35
4 | < 35 | < 35 | < 35 | < 35 | < 35 | < 35 | < 35 | < 35 | < 35 | < 35 | < 35 | < 35 | C[C@H]1COc2c(NCCCn3cccn3)c(F)c(N)c3c(=O)c(C#N)cn1c23 | < 35 | < 35
